Where two headings read alike, the source gives them in different places.

The test concerns the target Human D1 Receptor (Homo sapiens (Human), UniProt P21728). In words: Human D1 receptor binding assay ([^3H]-SCH23390 competition). The note with it: read-out: Human D1 Receptor Binding, Ki (nM), Geometric mean of 2-4 determinations (unless otherwise indicated). How it is done:
D1 binding assays were performed using over-expressing LTK human cell lines. […] These ligand and tissue concentrations were used in time course studies to determine linearity and equilibrium conditions for binding. […] The pellet was resuspended in assay buffer [50 mM Tris (pH 7.4@ RT) containing 4 mM MgSO4 and 0.5 mM EDTA]. […] Non-specific binding was determined by radioligand binding in the presence of a saturating concentration of (+)-Butaclamol (10 μM), a D1 antagonist. After a 30 minute incubation period at 37° C., assay samples were rapidly filtered through Unifilter-96 GF/B PEI-coated filter plates and rinsed with 50 mM Tris buffer (pH 7.4 at 4° C.). […] Ki values were calculated according to the Cheng-Prusoff equation: […]

Sequence of Human D1 Receptor (P21728 whole entry): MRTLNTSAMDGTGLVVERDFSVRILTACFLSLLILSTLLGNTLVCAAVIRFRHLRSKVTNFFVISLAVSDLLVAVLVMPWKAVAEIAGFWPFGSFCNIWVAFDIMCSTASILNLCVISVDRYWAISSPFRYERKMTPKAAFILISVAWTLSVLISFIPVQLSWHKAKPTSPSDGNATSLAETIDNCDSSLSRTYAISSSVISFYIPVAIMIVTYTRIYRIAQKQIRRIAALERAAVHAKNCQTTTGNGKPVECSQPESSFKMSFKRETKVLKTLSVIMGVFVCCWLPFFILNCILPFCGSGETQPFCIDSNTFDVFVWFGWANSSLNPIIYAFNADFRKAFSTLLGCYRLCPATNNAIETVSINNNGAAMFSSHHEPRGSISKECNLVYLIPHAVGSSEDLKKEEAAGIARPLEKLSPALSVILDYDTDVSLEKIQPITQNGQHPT

Turning to `Cc1cc(Oc2nccc3sncc23)ccc1-c1c(C)n[nH]c(=O)c1C` [Example 10, 4,6-dimethyl-5-[2-methyl-4-([1,2]thiazolo[4,5-c]pyridin-4-yloxy)phenyl]pyridazin-3(2H)-one], for the setting “competition with 0.5 nM [^3H]-SCH23390, over-expressing LTK human cell lines, 30 min at 37° C., values marked ^a are from a single determination”, the Ki came out at 32.7 nM.
Take `Cc1cc(Oc2nccc3[nH]cnc23)ccc1-c1c(C)ncc2nccn12` [Example 2, 4-[3-methyl-4-(6-methylimidazo[1,2-a]pyrazin-5-yl)phenoxy]-1H-imidazo[4,5-c]pyridine]: the Ki worked out at 374 nM.
Same read-out and setting: under `Cc1cc(Oc2ncnc3occc23)ccc1-c1c(C)ncnc1C` [Example 1, 4-[4-(4,6-dimethylpyrimidin-5-yl)-3-methylphenoxy]furo[2,3-d]pyrimidine] stands 166 nM.

For the origin of these results see patent US9868744B2, “Heteroaromatic compounds and their use as dopamine D1 ligands” (PFIZER INC., priority 2014, dated 2018).
